Reference: patent publication US9132126B2, “Phenyl-isoxazole derivatives and preparation process thereof” (priority 2011, dated 2015)
In brackets after ≈: the same amount, converted by molar mass.

What was measured:
[1] = Cytotoxicity assay using MTT; assay type: cell-based; conditions: dog, MDCK cells infected with influenza virus (K09), MDCK cell infected with K09; compound 24 hours; read-out: MTT assay (Experimental Example 3) CC50
Method: In this experiment, a cell was infected with a virus, and then the virus was directly treated with a compound so as to determine if the virus-infected cell has toxicity. For this, a cell (MDCK) was infected with an influenza virus (K09) for 1 hour, and treated with the compound with different concentrations for 24 hours. Then, the cell was treated with a MTT reagent for 1 hour. After 1 hour, a formazan crystal produced by the MTT reagent was dissolved in DMSO, and the absorbance was measured by an ELISA reader so as to determine CC50.
measured by MTT assay. A maximum concentration of the compound, at which the number of cells is reduced to half or more compared to that of a control group

[2] = Acute toxicity test through oral administration in a rat; assay type: in vivo; conditions: Sprague-Dawley (SD), in vivo; male SD-Rat, single oral administration, 14 days observation
Method: The acute toxicity of the inventive compound was determined through oral administration in a rat. Since the compound is expected to be orally administered in a clinical situation, an oral administration route was selected. A male rat aged 6 weeks (SD-Rat, 220±30 g) was subjected to quarantine, and acclimated for 1 week under a condition of lighting of 12 hours (08:00˜20:00), and luminance of 150-300 Lux at 22±3° C. at a relative humidity of 50±20%, while being freely fed with feed and water. Each of a control group and an experimental group include 8 rats. The control group was orally administered with 0.5% HPMC, and the experimental group was orally administered with a material (different concentrations) suspended in 0.5% HPMC, by using a sonde in an amount in proportion to the measured weight of each individual.
The concentration of the drug administered to the experimental group was set as 2000 mg/kg (the highest concentration for a single dose administration in a non-clinical test), and 1000 mg/kg, and 500 mg/kg (with a common ratio). For 14 days from drug administration, clinical symptoms were observed while the weight change was measured. Test animals that died during the test were subjected to autopsy, and abnormalities of main organs (heart, liver, lung, spleen, kidney, and large intestine) were observed and recorded. On the last day of the test (on the 14th day from the administration), all individuals were subjected to autopsy, and the changes of the organs caused by a test material were observed and compared to those in the control group. In the control group, no rats had died, and abnormalities were not observed through autopsy.
Each group was orally administered in a concentration of 500 mg/kg, 1000 mg/kg, and 2000 mg/kg. For 14 days from the administration, according to the test method, clinical symptoms were observed. […] Also, in the groups administered in various amounts, no individuals died. […] Further, no abnormal responses were observed, and from the autopsy results, no peculiarities were observed.

[3] = system: novel influenza virus (B/Field); assay: microbe, parasite or virus in culture; assay type: cell-based; conditions: unidentified influenza virus
[4] = system: H1N1 influenza virus (solomon); assay: microbe, parasite or virus in culture; assay type: cell-based; conditions: Solomon (H1N1); for EC50: Influenza A virus, read-out: EC50; for SI value: CC50/EC50
[5] = system: influenza virus (K09) expressing GFP; assay type: cell-based; parameters: key: ◯ = effective; X = ineffective
[6] = system: novel influenza virus (K09); assay: microbe, parasite or virus in culture; assay type: cell-based; conditions: for SI value K09: CC50/EC50; for EC50: MDCK, 72 h, read-out: Plaque reduction (Experimental Example 2) EC50

| Compound | CC50 at 24 h [1] [µg/mL] | LD50 at 14 days [2] [mg/kg] | EC50 [3] [µg/mL] | EC50 [4] [µg/mL] | SI value [4] | GFP reduction (Experimental Example 1) effect [5] | SI value K09 [6] | EC50 [6] [µg/mL] |
| --- | --- | --- | --- | --- | --- | --- | --- | --- |
| COc1cccc(N2CCN(C(=O)c3c(-c4ccccc4C(F)(F)F)noc3C)CC2)c1 [Example 3, (4-(3-methoxyphenyl)piperazine-1-yl)(5-methyl-3-(2-(trifluoromethyl)phenyl)isoxazol-4-yl)methanone] | 308 to 628 (≈ 691 to 1410 µM) | > 2000 | > 50 | 0.064 to 0.094 (≈ 0.144 to 0.211 µM) | 3276.59 to 9812.50 | ◯ | 473.84 to 1903.03 | 0.33 to 0.65 (≈ 0.741 to 1.46 µM) |
| COc1cccc(N2CCN(C(=O)c3c(-c4ccccc4Cl)noc3C)CC2)c1 [Example 9, (3-(2-chlorophenyl)-5-methylisoxazol-4-yl)(4-(3-methoxyphenyl)piperazine-1-yl)methanone] | 312 to 625 (≈ 759 to 1520 µM) | > 2000 | > 50 | 0.048 to 0.097 (≈ 0.117 to 0.236 µM) | 3221.649 to 13020.833 | ◯ | 801.282 to 3205.128 | 0.195 to 0.39 (≈ 0.473 to 0.947 µM) |
| Cc1onc(-c2ccc(OC(F)(F)F)cc2)c1C(=O)N1CCN(c2ccc(Cl)c(Cl)c2)CC1 [Example 27, (4-(3,4-dichlorophenyl)piperazine-1-yl)(5-methyl-3-(4-(trifluoromethoxy)phenyl)isoxazol-4-yl)methanone] | 9.77 to 19.5 (≈ 19.5 to 39 µM) | > 2000 |  |  |  | ◯ | 2.5 to 8.13 | 2.4 to 3.9 (≈ 4.8 to 7.8 µM) |
| Cc1onc(-c2cccc(C(F)(F)F)c2)c1C(=O)N1CCN(c2ccc(Cl)c(Cl)c2)CC1 [Example 43, (4-(3,4-dichlorophenyl)piperazine-1-yl)(5-methyl-3-(3-(trifluoromethyl)phenyl)isoxazol-4-yl)methanone] | 2500 (≈ 5160 µM) |  |  |  |  | X |  | > 50 |
| Cc1onc(-c2cccc(OC(F)(F)F)c2)c1C(=O)N1CCN(c2ccc(Cl)c(Cl)c2)CC1 [Example 51, (4-(3,4-dichlorophenyl)piperazine-1-yl)(5-methyl-3-(3-(trifluoromethoxy)phenyl)isoxazol-4-yl)methanone] | 15.2 to 25.9 (≈ 30.5 to 51.8 µM) |  |  |  |  | ◯ | 3.91 to 10.80 | 2.4 to 3.9 (≈ 4.8 to 7.8 µM) |
| COc1ccccc1N1CCN(C(=O)c2c(-c3cccc(OC(F)(F)F)c3)noc2C)CC1 [Example 53, (4-(2-methoxyphenyl)piperazine-1-yl)(5-methyl-3-(3-(trifluoromethoxy)phenyl)isoxazol-4-yl)methanone] | > 500 |  |  |  |  | ◯ | 160< | 3.12 (≈ 6.76 µM) |
| COc1ccccc1N1CCN(C(=O)c2c(-c3ccccc3Cl)noc2N)CC1 [Example 61, (5-amino-3-(2-chlorophenyl)isoxazol-4-yl)(4-(2-methoxyphenyl)piperazine-1-yl)methanone] | 62.5 to 125 (≈ 151 to 303 µM) | > 2000 |  |  |  | ◯ | 159.94 to 319.89 | 0.39 (≈ 0.945 µM) |
| Nc1onc(-c2cccc(F)c2)c1C(=O)N1CCN(c2ccc(Cl)c(Cl)c2)CC1 [Example 67, (5-amino-3-(3-fluorophenyl)isoxazol-4-yl)(4-(3,4-dichlorophenyl)piperazine-1-yl)methanone] | 10.1 to 21.2 (≈ 23.2 to 48.8 µM) |  |  |  |  | ◯ | 2.59 to 8.85 | 2.4 to 3.9 (≈ 5.51 to 8.96 µM) |
| COc1cccc(N2CCN(C(=O)c3c(-c4cccc(F)c4)noc3N)CC2)c1 [Example 68, (5-amino-3-(3-fluorophenyl)isoxazol-4-yl)(4-(3-methoxyphenyl)piperazine-1-yl)methanone] | 88.1 to 137 (≈ 222 to 345 µM) |  |  |  |  | ◯ | 3.03 to 7.81 | 17.5 to 29 (≈ 44.1 to 73.2 µM) |
| Nc1onc(-c2cccc(F)c2)c1C(=O)N1CCN(c2ccccc2O)CC1 [Example 72, (5-amino-3-(3-fluorophenyl)isoxazol-4-yl)(4-(2-hydroxyphenyl)piperazine-1-yl)methanone] | 15.6 to 31.2 (≈ 40.8 to 81.7 µM) |  |  |  |  | ◯ | 0.31 to 1.25 | 25 to 50 (≈ 65.4 to 131 µM) |
| Nc1onc(-c2ccccc2F)c1C(=O)N1CCN(c2ccc(Cl)c(Cl)c2)CC1 [Example 75, (5-amino-3-(2-fluorophenyl)isoxazol-4-yl)(4-(3,4-dichlorophenyl)piperazine-1-yl)methanone] | 625 to 1250 (≈ 1440 to 2870 µM) |  |  |  |  | ◯ | 12.5 to 25.0 | > 50 |
| Nc1onc(-c2ccccc2C(F)(F)F)c1C(=O)N1CCN(c2ccc(Cl)c(Cl)c2)CC1 [Example 91, (5-amino-3-(2-(trifluoromethyl)phenyl)isoxazol-4-yl)(4-(3,4-dichlorophenyl)piperazine-1-yl)methanone] | 18.4 to 29.9 (≈ 37.8 to 61.6 µM) |  |  |  |  | ◯ | 0.71 to 2.39 | 12.4 to 25.8 (≈ 25.7 to 53.2 µM) |
| COc1cccc(N2CCN(C(=O)c3c(-c4ccc(OC(F)(F)F)cc4)noc3N)CC2)c1 [Example 100, (5-amino-3-(4-(trifluoromethoxy)phenyl)isoxazol-4-yl)(4-(3-methoxyphenyl)piperazine-1-yl)methanone] | 18.4 to 46.5 (≈ 39.9 to 101 µM) |  |  |  |  | ◯ | 0.49 to 12.57 | 29 to 37 (≈ 62.7 to 80 µM) |
| Nc1onc(-c2cccc(C(F)(F)F)c2)c1C(=O)N1CCN(c2ccc(Cl)c(Cl)c2)CC1 [Example 107, (5-amino-3-(3-(trifluoromethyl)phenyl)isoxazol-4-yl)(4-(3,4-dichlorophenyl)piperazine-1-yl)methanone] | 122 to 170 (≈ 252 to 351 µM) | > 2000 |  |  |  | ◯ | 31.34 to 62.68 | 2.72 to 3.9 (≈ 5.6 to 8.04 µM) |
| COc1ccccc1N1CCN(C(=O)c2c(-c3cccc(C(F)(F)F)c3)noc2N)CC1 [Example 109, (5-amino-3-(3-(trifluoromethyl)phenyl)isoxazol-4-yl)(4-(2-methoxyphenyl)piperazine-1-yl)methanone] | 147 to 191 (≈ 330 to 427 µM) | > 2000 |  |  |  | ◯ | 42.07 to 125.4 | 1.52 to 3.5 (≈ 3.4 to 7.84 µM) |
| Nc1onc(-c2cccc(C(F)(F)F)c2)c1C(=O)N1CCN(c2ccccc2O)CC1 [Example 112, (5-amino-3-(3-(trifluoromethyl)phenyl)isoxazol-4-yl)(4-(2-hydroxyphenyl)piperazine-1-yl)methanone] | 16.5 to 34.3 (≈ 38.2 to 79.3 µM) |  |  |  |  | ◯ | 0.33 to 1.37 | 25 to 50 (≈ 57.8 to 116 µM) |
| Nc1onc(-c2cccc(OC(F)(F)F)c2)c1C(=O)N1CCN(c2ccc(Cl)c(Cl)c2)CC1 [Example 115, (5-amino-3-(3-(trifluoromethoxy)phenyl)isoxazol-4-yl)(4-(3,4-dichlorophenyl)piperazine-1-yl)methanone] | 15.5 to 35.8 (≈ 30.9 to 71.3 µM) |  |  |  |  | ◯ | 0.34 to 1.70 | 21 to 45 (≈ 41.9 to 89.8 µM) |
| COc1cccc(N2CCN(C(=O)c3c(-c4cccc(OC(F)(F)F)c4)noc3N)CC2)c1 [Example 116, (5-amino-3-(3-(trifluoromethoxy)phenyl)isoxazol-4-yl)(4-(3-methoxyphenyl)piperazine-1-yl)methanone] | 13.7 to 25.6 (≈ 29.5 to 55.4 µM) |  |  |  |  | ◯ | 0.42 to 1.70 | 15 to 32 (≈ 32.4 to 69.2 µM) |
| CCOC(=O)C1CCN(C(=O)c2c(-c3ccccc3Cl)noc2N)CC1 [Example 122, ethyl-1-(5-amino-3-(2-chlorophenyl)isoxazol-4-carbonyl)piperidine-4-carboxylate] | 161 to 321 (≈ 425 to 849 µM) | > 2000 |  |  |  | ◯ | 18.89 to 71.27 | 4.5 to 8.5 (≈ 11.9 to 22.5 µM) |
